pEC50, pIC50: −log10 of the molar value.
What was measured:
human PPARγ = human PPARγ (Homo sapiens, UniProt P37231); test: cell-based
bleomycin-exposed mice [1] = test: Bleomycin-induced skin fibrosis in mice; format: in vivo, mouse; conditions: vs vehicle
Description: The experiments were carried out on 6-week-old male C56BL/6 mice (Janvier, Le Genest-Saint-Isle, France).
0.9% NaCl was used as control (100 μL subcutaneous injections).
On day 21, mice were sacrificed by cervical dislocation, and skin samples were taken and processed for analysis.
Lesional skin areas were excised, fixed in 4% formalin and embedded in paraffin. Five μm thick sections were stained with haematoxylin and eosin. The dermal thickness was analyzed at 100-fold magnification by measuring the distance between the epidermal-dermal junction and the dermal-subcutaneous fat junction at four sites from lesional skin of each mouse. Two independent examiners performed the evaluation before a consensus in case of more of 10% of variability of the measures.
The collagen content in lesional skin samples was explored by hydroxyproline assay. After digestion of punch biopsies (ø3 mm) in 6M HCl for three hours at 120° C., the pH of the samples was adjusted to 7 with 6M NaOH. Afterwards, samples were mixed with 0.06 M chloramine T and incubated for 20 min at room temperature. […] The absorbance was determined at 557 nm with a Spectra MAX 190 microplate spectrophotometer (Molecular Devices, Sunnyvale, Calif., USA).
Total soluble collagen in cell culture supernatants was quantified using a Sircol collagen assay (Biocolor). Briefly, cell culture supernatant was mixed with sirius red dye for 30 minutes at room temperature. After centrifugation, the pellet was dissolved in alkali reagent. Measurement was performed using a SpectraMax 190 microplate spectrophotometer (Molecular Devices) at a wavelength of 540 nm.
Data were expressed as mean±standard error of the mean. The Student t-test was used for statistical analyses. A p value of less than 0.05 was considered as a statistically significant result.

bleomycin-exposed mice [2] = test: Bleomycin-induced pulmonary fibrosis in mice; conditions: vs vehicle
Description: At the end of the treatment, animals were sacrificed and plasma samples and livers were harvested. Expression of genes that are known to be implicated in the pulmonary inflammation process was quantified and plasmatic levels of lung parameters were measured.
The animals were housed in groups of 3-10 in polypropylene cages (floor area=1032 cm^2) under standard conditions: room temperature (22±2° C.), hygrometry (55±10%), light/dark cycle (12 h/12 h), air replacement (15-20 volumes/hour), water and food (SDS, RM1) ad libitum. Mice were allowed to accommodate themselves for at least 5 days prior to the experimentation. Mice were numbered by marking their tail using indelible markers.
Bleomycin (Laboratoire Bellon) was dissolved in 0.9% NaCl (CDM Lavoisier, France) just before use.
On day 14, 2 hours after dosing, animals were anaesthetised with pentobarbital (60 mg/kg, ip) and blood was collected using cardiac puncture. […] Blood sampling (0.9 mL of total blood) was placed in pre-chilled 2-mL lithium-heparin collection tubes. The blood samples were gently mixed, placed on crushed ice and centrifuged within 30 min of sampling at approximately 1500×g for 10 min at approximately +4° C. For each blood sampling, the resultant plasma was separated into 2 aliquots (at least 100 μL each) and transferred using disposable plastic material into polypropylene tubes. The samples were immediately transferred in the upright position to a freezer where they were kept at −20° C.
After terminal blood sampling, lung tissue was removed: • A first tissue sample (middle lobe) was harvested and fixed with paraformaldehyde, and kept at 5±3° C. • A second tissue sample (right lobe) was frozen in liquid nitrogen and kept at −20° C.
For the quantification of collagen, sections were stained with Picro-Sirius red and counterstained with Mayer's haematoxylin. […] For all slides, analysis was performed by a single experimenter strictly in the same conditions.
mRNA extraction was performed on small frozen lung samples (50-100 mg). Briefly, samples were cryogenically ground with mortar and pestle. […] RNA quantity was determined with Nanodrop (ND2000 Thermo Scientific) and RNA quality was verified with Bioanalyzer (2100 Agilent Technology).
Real Time PCR was performed on ABI PRISM 7900 apparatus Raw data from ABI7900 were exported in text format. […] Each RNA samples were reverse transcribed and quantified in triplicate.
Samples of lung and supernatants were kept on ice during all experiment. For extraction, the manufacturer recommends 10 mg of tissue for 100 μl T-Per+1 μl “Halt-protease” (100×).
50 ml of T-Per buffer were prepared, to which 500 μl of “Halt-protease” (100×) were added, and the mixture was kept on ice. Samples of 50 to 70 mg of lung just thawed were weighed and cut into small pieces, and 1 ml of cold PBS was added to wash the tissue. The mixture was centrifuged at 500 g during 5 min at 4° C., and the supernatant was discarded. 100 μl/10 mg of T-Per+antiproteases (100×) were added, crushing the lung with a Potter, with 5 or 6 twists, up and down. The mixture was centrifuged at 10000 g during 5 min at 4° C. The supernatant was removed, aliquoted and kept at −20° C. for the subsequent measurement of biomarkers.
All proteins were quantified with ELISA Kit, according to the instructions of the manufacturers: • osteopontin: Quantikine Mouse Osteopontin immunoassay, R&D SYSTEMS®, Ref:MOST00 • MCP-1: Quantikine Mouse CCL2/JE/MCP-1 ELISA Kit, R&D SYSTEMS®, ref: MJE00 • TIMP-1: Mouse TIMP-1, R&D SYSTEMS®, Ref: TM100.
All parameters were analysed using Graphpad software (version 5.1). The parameters were analysed as followed: • Using one-way ANOVA (treatment) to compare groups (1, 2 and 3). […] When ANOVA was found significant, a Dunnett's test was used to compare group 1 to group 4, to group 5, to group 6 and to group 7).

[3] = test system: primary human lung fibroblasts; test: TGFβ-induced fibroblasts to myofibroblasts transition (FMT), α-SMA immunocytochemistry; format: cell-based; conditions: Fibroblast, α-SMA-positive cells, 48 h, NC: not converged
Description: (§1) The ability of compound A to inhibit TGFβ-induced lung and dermal fibroblasts to myofibroblasts transition (FMT) was determined by performing immunocytochemistry assays for the myofibroblast marker, α-smooth muscle actin (α-SMA). These assays were carried out using primary human lung or skin fibroblasts (Promocell). The cells were plated in 96-well plates in full growth medium for 24 h, followed by 24 h starvation in serum-free medium. The medium was then replaced by fresh medium containing TGFβ and compound A to be tested (at concentrations ranging from 10^−4 M to 4.5 10^−8 M) for another 48 h. The culture medium was then removed, the cells were fixed with formaldehyde and stained with a primary mouse α-SMA antibody (Sigma) and secondary fluorescence-labelled goat-anti-mouse antibody (Invitrogen). α-SMA expression was quantified using Meta Xpress software. […] Results were expressed as % of α-SMA-positive cells out of the total cell number. The data was normalised to the TGFβ treatment alone, which was taken as 100%. The results present the mean of biological triplicates. Dose-effect curves and IC50 values were calculated using the GraphPad Prism software.

[4] = test system: primary human dermal fibroblasts; test: as above; format: cell-based; conditions: Fibroblast, α-SMA-positive cells, 48 h, NC: not converged
Description: as §1

Chain of human PPARγ (P37231 238-505 limits assumed): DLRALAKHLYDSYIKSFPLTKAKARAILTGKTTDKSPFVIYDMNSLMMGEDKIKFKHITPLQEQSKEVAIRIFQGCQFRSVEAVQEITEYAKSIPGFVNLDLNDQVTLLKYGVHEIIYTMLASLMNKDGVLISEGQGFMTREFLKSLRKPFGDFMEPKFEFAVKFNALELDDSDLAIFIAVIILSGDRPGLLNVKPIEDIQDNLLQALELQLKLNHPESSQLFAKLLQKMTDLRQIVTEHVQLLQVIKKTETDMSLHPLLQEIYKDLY

O=C(O)CCCc1cc2cc(Cl)ccc2n1S(=O)(=O)c1ccc2ncsc2c1 [compound A, 5-Chloro-1-[(6-benzothiazolyl)sulfonyl]-1H-indole-2-butanoic acid]
pEC50 (human PPARγ): 6.74 | collagen content (skin) (bleomycin-exposed mice [1]; 30 mg/kg po 21 days): significantly reduced the collagen content | dermal thickness (bleomycin-exposed mice [1]; 30 mg/kg po 21 days): significantly reduced dermal thickness | hydroxyproline content in lesioned skin (bleomycin-exposed mice [1]; 30 mg/kg po 21 days): significantly lower | collagen content (skin) (bleomycin-exposed mice [1]; 100 mg/kg po 21 days): significantly reduced the collagen content | dermal thickness (bleomycin-exposed mice [1]; 100 mg/kg po 21 days): more significantly reduced dermal thickness | hydroxyproline content in lesioned skin (bleomycin-exposed mice [1]; 100 mg/kg po 21 days): significantly lower | MCP-1 expression (lung) (bleomycin-exposed mice [2]; 30 mg/kg/day po 15 days): inhibited MCP-1 expression compared to vehicle without reaching significance | TIMP-1 expression (lung) (bleomycin-exposed mice [2]; 30 mg/kg/day po 15 days): inhibited TIMP-1 expression compared to vehicle without reaching significance | lung MCP-1 levels (bleomycin-exposed mice [2]; 30 mg/kg/day po 15 days): reduced MCP-1 levels compared to vehicle without reaching significance | lung TIMP-1 levels (bleomycin-exposed mice [2]; 30 mg/kg/day po 15 days): significantly reduced TIMP-1 levels | lung osteopontin levels (bleomycin-exposed mice [2]; 30 mg/kg/day po 15 days): reduced osteopontin levels compared to vehicle without reaching significance | osteopontin expression (lung) (bleomycin-exposed mice [2]; 30 mg/kg/day po 15 days): significantly inhibited osteopontin expression | Col1a expression (lung) (bleomycin-exposed mice [2]; 100 mg/kg/day po 15 days): significantly inhibited Col1a expression | Col3a expression (lung) (bleomycin-exposed mice [2]; 100 mg/kg/day po 15 days): significantly inhibited Col3a expression | MCP-1 expression (lung) (bleomycin-exposed mice [2]; 100 mg/kg/day po 15 days): inhibited MCP-1 expression compared to vehicle without reaching significance | TGFβR-1 expression (lung) (bleomycin-exposed mice [2]; 100 mg/kg/day po 15 days): significantly inhibited TGFβR-1 expression | TIMP-1 expression (lung) (bleomycin-exposed mice [2]; 100 mg/kg/day po 15 days): inhibited TIMP-1 expression compared to vehicle without reaching significance | collagen deposition (lung) (bleomycin-exposed mice [2]; 100 mg/kg/day po 15 days): significantly decreased collagen deposition levels | fibronectin expression (lung) (bleomycin-exposed mice [2]; 100 mg/kg/day po 15 days): significantly inhibited fibronectin expression | lung MCP-1 levels (bleomycin-exposed mice [2]; 100 mg/kg/day po 15 days): reduced MCP-1 levels compared to vehicle without reaching significance | lung TIMP-1 levels (bleomycin-exposed mice [2]; 100 mg/kg/day po 15 days): significantly reduced TIMP-1 levels | lung osteopontin levels (bleomycin-exposed mice [2]; 100 mg/kg/day po 15 days): reduced osteopontin levels compared to vehicle without reaching significance | osteopontin expression (lung) (bleomycin-exposed mice [2]; 100 mg/kg/day po 15 days): significantly inhibited osteopontin expression | pIC50 [3]: 4.97 | pIC50 [4]: ~4.95

Source: patent publication US10052311B2, “PPAR compounds for use in the treatment of fibrotic diseases” (INVENTIVA, priority 2014, dated 2018)
